# Source: patent US7446210B2, “Factor Xa compounds” (Janssen Pharmaceutica N.V., priority 2004, dated 2008)
# Where a name gives a salt, the structure may show the parent alone. Read-outs that look alike come from different tables or passages of the source.
# Columns and labels:
# Factor Xa [1] = biological target: T1, Factor Xa (Homo sapiens, UniProt P00742); assay: In vitro inhibition of purified enzymes, Ki determination: Factor Xa (hydrolysis of S-2765); format: biochemical; parameters: purchased Enzyme Research Laboratories (South Bend, Ind.); conditions: purified activated human Factor X, substrate S-2765, 37° C., pH 7.5; read-out: KI FXa
# Source text: (§1) Reagents: All buffer salts were obtained from Sigma Chemical Company (St. Louis, Mo.), and were of the highest purity available. The enzyme substrate, S-2765 (Z-D-Arg-Gly-Arg-p-nitroanilide) was obtained from DiaPharma (West Chester, Ohio). N-succinyl-Ala-Ala-Pro-Arg-p-nitroanilide (BACHEM L-1720) was obtained from BACHEM (King of Prussia, Pa.). N-p-Tosyl-Gly-Pro-Lys-p-nitroanilide (Sigma T6140), N-succinyl-Ala-Ala-Pro-Phe-p-nitroanilide (Sigma S7388), N-CBZ-Val-Gly-Arg-p-nitroanilide (Sigma C7271) was obtained from Sigma and N-succinyl-Ala-Ala-Pro-Val-p-nitroanilide (BACHEM L-1770) was obtained from BACHEM (King of Prussia, Pa.).
# (§2) Human α-thrombin and human Factor Xa were obtained from Enzyme Research Laboratories (South Bend, Ind.). Human trypsin was obtained from Calbiochem (La Jolla, Calif.). Human plasmin was obtained from Enzyme Research Laboratories (South Bend, Ind.). Bovine a-chymotrypsin (Sigma C4129) and human kidney cell urokinase (Sigma U5004) was obtained from Sigma. Human leukocyte elastase was obtained from Elastin Products (Pacific, Mo.).
# (§3) Ki Determinations: All assays are based on the ability of the test compound to inhibit the enzyme-catalyzed hydrolysis of a peptide p-nitroanilide substrate. In a typical Ki determination, substrate is prepared in DMSO, and diluted into an assay buffer consisting of 50 mM HEPES, pH 7.5, 200 mM NaCl, 0.05% n-octyl b-d-glucopyranoside. The final concentrations for each of the substrates are listed below. In general, substrate concentrations are lower than the experimentally determined value for Km. Test compounds are prepared as 10 mM solutions in DMSO. Dilutions are prepared in DMSO yielding 7 final concentrations encompassing a 200-fold concentration range. Enzyme solutions are prepared at the concentrations listed below in assay buffer.
# (§4) Reactions were initiated by the addition of a […] aliquot of enzyme and the absorbance increase at 405 nm is recorded for 15 minutes. Data corresponding to less than 10% of the total substrate hydrolysis were used in the calculations. The ratio of the velocity (rate of change in absorbance as a function of time) for a sample containing no test compound is divided by the velocity of a sample containing test compound, and is plotted as a function of test compound concentration. The data are fit to a linear regression, and the value of the slope of the line calculated. The inverse of the slope is the experimentally determined apparent Ki value (Ki app). The Ki is calculated from the Ki app using the Ki factor specific for the assay, where Ki=Ki app×Ki factor, or Ki=Ki app×(1/ (1+[S]/Km)).
# Substrate solutions were prepared at a concentration of 107 mM in assay buffer. Final DMSO concentration was 3.3%. Purified activated human Factor X was diluted into assay buffer to a concentration of 16 nM. Final reagent concentrations were: [Factor Xa]=0.53 nM, [S-2765]=100 mM.
# human trypsin = biological target: T2, human trypsin; assay: In vitro inhibition of purified enzymes, Ki determination: trypsin (hydrolysis of S-2765); format: biochemical; conditions: substrate S-2765, 37° C., pH 7.5
# T2 construct: Purified human trypsin was diluted into assay buffer to a concentration of 10 nM
# Source text: as §1, §2, §3, §4
# Trypsin: Trypsin activity was assessed as the ability to hydrolyze the substrate S-2765 (Z-D-Arg-Gly-Arg-p-nitroanilide, Km=61 mM, Ki factor=0.50). Substrate solutions were prepared at a concentration of 64 mM in assay buffer. Final DMSO concentration was 3.3%. Purified human trypsin was diluted into assay buffer to a concentration of 10 nM. Final reagent concentrations were: [Trypsin]=0.33 nM, [S-2765]=60 mM.
# human α-thrombin = biological target: T3, human α-thrombin (Homo sapiens, UniProt P00734); assay: In vitro inhibition of purified enzymes, Ki determination: thrombin (hydrolysis of N-succinyl-Ala-Ala-Pro-Arg-p-nitroanilide); format: biochemical; conditions: substrate N-succinyl-Ala-Ala-Pro-Arg-p-nitroanilide, 37° C., pH 7.5
# T3 construct: Purified human a-thrombin was diluted into assay buffer; purchased Enzyme Research Laboratories (South Bend, Ind.)
# Source text: as §1, §2, §3, §4
# Thrombin: Thrombin activity was assessed as the ability to hydrolyze the substrate N-succinyl-Ala-Ala-Pro-Arg-p-nitroanilide (Km=320 mM, Ki factor=0.76). Substrate solutions were prepared at a concentration of 107 mM in assay buffer. Final DMSO concentration was 4.3%. Purified human a-thrombin was diluted into assay buffer to a concentration of 33 nM. Final reagent concentrations were: [thrombin]=1.1 nM, [substrate N-succinyl-Ala-Ala-Pro-Arg-p-nitroanilide]=100 mM.
# Factor Xa [2] = biological target: T1, Factor Xa; conditions: background statement; cited from earlier work
# T1 sequence (P00742 235-488 limits assumed): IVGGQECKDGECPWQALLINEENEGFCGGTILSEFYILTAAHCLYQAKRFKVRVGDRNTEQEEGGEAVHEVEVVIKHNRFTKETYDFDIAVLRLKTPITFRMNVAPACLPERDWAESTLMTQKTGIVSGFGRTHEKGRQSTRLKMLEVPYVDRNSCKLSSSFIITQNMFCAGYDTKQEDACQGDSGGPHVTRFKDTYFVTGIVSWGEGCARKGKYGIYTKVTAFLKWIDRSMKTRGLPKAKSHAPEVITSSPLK
# T1 sequence (P00742 41-179 partner limits assumed): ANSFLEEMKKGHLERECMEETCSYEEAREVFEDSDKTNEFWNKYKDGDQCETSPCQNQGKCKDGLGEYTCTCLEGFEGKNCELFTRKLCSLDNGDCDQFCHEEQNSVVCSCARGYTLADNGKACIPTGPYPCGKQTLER
Compound,Ki (Factor Xa [1]),Ki (human trypsin),Ki (human α-thrombin),Ki (Factor Xa [2])
antistasin [ATS],,,,0.05 nM
"Cc1nn(-c2cccc(CN)c2)c2c(F)c(-c3ccc(N4CCCC4=O)cc3)ccc12 [Example 7, 1-{4-[1-(3-Aminomethyl-phenyl)-7-fluoro-1-3-methyl-1H-indazol-6-yl]-phenyl}-pyrolidin-2-one]",220 nM,700 nM,> 15200 nM,
"Cc1nn(-c2cccc(CN)c2)c2c(F)c(-c3ccc(C#Cc4ccc5nc(N)sc5c4)cc3)ccc12 [Example 15, 6{4-1-(3-Aminomethyl-phenyl)-7-fluoro-3-methyl-1H-indazol]-phenylethynyl-benzothiazol-2-ylamine]",2820 nM,1590 nM,> 15200 nM,
"tick anticoagulant peptide (YNRLCIKPRDWIDECDSNEGGERAYFRNGKGGCDSFWICPEDHTGADYYSSYRDCFNACI; UniProt P17726 1-60, looked up) [TAP]",,,,~0.5 nM
"Cc1nn(-c2cccc(CN)c2)c2c(F)c(-c3ccc(N4CCCCC4=O)cc3)ccc12 [Example 6, 1-{4-[1-(3-Aminomethyl-phenyl)7-fluoro-1-3-methyl-1H-indazol-6-yl]-phenyl}-piperidin-2-one]",120 nM,> 10000 nM,> 15200 nM,
"COc1cccc(-n2nc(C)c3ccc(-c4ccc(N5CCCCC5=O)cc4)c(F)c32)c1 [Example 4, 1-{4-[7-fluoro-1-(3methoxy-phenyl)-3-methyl-1H-indazol-6-yl]-phenyl}-piperidin-2-one]",660 nM,,,
"Cc1nn(-c2ccc3onc(N)c3c2)c2c(F)c(-c3ccc(N4CCCCC4=O)cc3)ccc12 [Example 86, 1-{4-[1-(3-Amino-benzo[d]isoxazol-5-yl)-7-fluoro-3-methyl-1H-indazol-6-yl]-phenyl}-piperidin-2-one]",48 nM,> 10000 nM,> 15200 nM,
"O=C1CCCCN1c1ccc(-c2ccc3c(C(F)(F)F)nn(-c4cccc(Cl)c4)c3c2F)c(F)c1 [Example 95, 1-{4-[1-(3-Chloro-phenyl)-7-fluoro-3-trifluoromethyl-1H-indazol-6-yl]-3-fluoro-phenyl}-piperidin-2-one]",340 nM,> 10000 nM,> 15200 nM,

# Further lines, with some results ahead:
Ki (Factor Xa [1]),Ki (human trypsin),Ki (human α-thrombin),Compound,Ki (Factor Xa [2])
6 nM,> 10000 nM,> 15200 nM,"NC(=O)c1nn(-c2ccc3onc(N)c3c2)c2c(F)c(-c3ccc(N4CCOCC4=O)cn3)ccc12 [Example 43, 1-(3-Amino-benzo[d]isoxazol-5-yl)-7-fluoro-6-[5-(3-oxo-morpholin-4-yl)-pyridin-2-yl]-1H-indazole-3-carboxylic acid amide; methanesulfonic acid salt]",
46 nM,> 10000 nM,> 15200 nM,"Cc1nn(-c2ccc3ccnc(N)c3c2)c2c(F)c(-c3ccc(-c4ccccc4S(C)(=O)=O)cc3F)ccc12 [Example 93, 7-[7-Fluoro-6-(3-fluoro-2′-methanesulfonyl-biphenyl-4-yl)-3-methyl-indazol-1-yl]-isoquinolin-1-ylamine]",
1 nM,140 nM,1600 nM,"Cc1nn(-c2cccc(C(=N)N)c2)c2c(F)c(-c3ccc(N4CCCCC4=O)cc3F)ccc12 [Example 75, 3-{7-Fluoro-6-[2-fluoro-4-(2-oxo-piperidin-1-yl)-phenyl]-3-methyl-indazol-1-yl}-benzamidine]",
2 nM,> 10000 nM,> 15200 nM,"CN(C)Cc1cnccc1-c1ccc(-c2ccc3c(C(N)=O)nn(-c4ccc5onc(N)c5c4)c3c2F)c(F)c1 [Example 66, 1-(3-Amino-benzo[d]isoxazol-5-yl)-6-[4-(3-dimethylaminomethyl-pyridin-4-yl)-2-fluoro-phenyl]-7-fluoro-1H-indazole-3-carboxylic acid amide]",
33 nM,2900 nM,> 15200 nM,Cc1nn(-c2cccc(CN)c2)c2c(F)c(-c3ccc(N(C)c4ccncc4)cc3F)ccc12 [Example 35],
40 nM,> 10000 nM,> 15200 nM,"Cc1nn(-c2ccc3onc(N)c3c2)c2c(F)c(-c3ccc(-n4ccccc4=O)cc3F)ccc12 [Example 25, 1-{4-[1-(3-Amino-benzo[a]isoxazol-5-yl)-7-fluoro-3-methyl-1H-indazol-6-yl]-3-fluoro-phenyl}-1H-pyridin-2-one]",
5 nM,> 10000 nM,> 15200 nM,"CN(C)CCCN(c1ccncc1)c1ccc(-c2ccc3c(C(N)=O)nn(-c4ccc5onc(N)c5c4)c3c2F)c(F)c1 [Example 59, 1-(3-Amino-benzo[d]isoxazol-5-yl)-6-{4-[(3-dimethylamino-propyl)-pyridin-4-yl-amino]-2-fluoro-phenyl}-7-fluoro-1H-indazole-3-carboxamide dimesylate salt]",
45 nM,1500 nM,> 15200 nM,"Cc1nn(-c2cccc(CN)c2)c2c(F)c(-c3ccc(-c4ccccc4S(C)(=O)=O)cc3F)ccc12 [Example 82, 3-[7-Fluoro-6-(3-fluoro-2′-methanesulfonyl-biphenyl-4-yl)-3-methyl-indazol-1-yl]-benzylamine]",
